# Data: ChEMBL document CHEMBL1130645, “Synthesis and evaluation of artificial taxoids with antitumor and multi-drug resistance reversing activities” (1998)
# How the values were obtained:
# [1] = Compound was evaluated for vincristine accumulation in ovarian MDR cancer cells (2780AD) at a concentration of 1.0 ug/mL.; assay type: functional, Homo sapiens
# [2] = Compound was evaluated for inhibition of tumor cell growth using sulforhodamine-B assay in 38 human cell lines; assay type: functional
# P388 = assay: Compound was evaluated for inhibition of tumor cell growth using sulforhodamine-B assay in mouse […] p338 cell line; assay type: functional
# [3] = Compound was evaluated for vincristine accumulation in ovarian MDR cancer cells (2780AD) at a concentration of 10 ug/mL.; assay type: functional, Homo sapiens
# Homo sapiens = species: Homo sapiens; assay: Compound was evaluated for inhibition of tumor cell growth using sulforhodamine-B assay in human BSY-1 cell.; assay type: functional
GI50 (P388),SMILES,Control [1],GI50 [2],Control [3],GI50 (Homo sapiens)
10 µM,CC(=O)O[C@@]1(C)CCCC2=C1[C@H](OCc1ccccc1)[C@]1(O)C[C@H](OC(=O)[C@H](O)[C@@H](NCc3ccccc3)c3ccccc3)C(C)=C([C@@H](Sc3ccccc3)[C@@H]2OCCO)C1(C)C,80%,10 µM,102%,
,CC1=C2[C@@H](Sc3ccccc3)[C@H](OCCO)C3=C([C@H](OCc4ccccc4)[C@](O)(C[C@@H]1OC(=O)[C@H](O)[C@@H](NCc1ccccc1)c1ccccc1)C2(C)C)[C@@](C)(O)CCC3,151%,,217%,9.5 µM
